Reference: US11066399B2, “Ferroportin inhibitors” (Vifor (International) AG, priority 2015, dated 2021)

Columns and labels:
[1] = biological target: T1, human Fpn-GFP fusion protein (Homo sapiens, UniProt Q9NP59); experiment: Ferroportin Internalization and Degradation Assay (FACS); format: cell-based; conditions: average (AVE) of multiple measurements, Fpn-GFP MFI, HEK-293 cell line #354, FACS
T1 construct: expressed in transfected cells; host or cells: HEK-293 cell line #354 (derivative of HEK-293 Tet-ON Advanced, Clontech)
T1 sequence (Q9NP59 1-571): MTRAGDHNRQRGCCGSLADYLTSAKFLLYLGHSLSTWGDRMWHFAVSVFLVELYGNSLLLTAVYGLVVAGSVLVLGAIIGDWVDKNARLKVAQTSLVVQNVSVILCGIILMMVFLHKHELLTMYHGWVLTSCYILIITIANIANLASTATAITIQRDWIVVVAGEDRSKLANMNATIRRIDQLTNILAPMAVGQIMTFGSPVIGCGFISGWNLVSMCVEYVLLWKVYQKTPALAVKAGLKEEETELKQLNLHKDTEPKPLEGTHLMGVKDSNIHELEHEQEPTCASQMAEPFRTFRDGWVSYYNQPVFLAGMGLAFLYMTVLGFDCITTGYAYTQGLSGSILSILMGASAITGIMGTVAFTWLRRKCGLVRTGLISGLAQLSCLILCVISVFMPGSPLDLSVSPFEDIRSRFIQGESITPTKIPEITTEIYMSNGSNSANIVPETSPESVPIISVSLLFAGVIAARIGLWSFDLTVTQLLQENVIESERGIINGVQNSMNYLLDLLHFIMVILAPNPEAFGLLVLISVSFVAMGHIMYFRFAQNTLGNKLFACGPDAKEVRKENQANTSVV
Description: Growing HEK-293 #354 cells in doxycycline containing media induced expression of human Fpn-GFP fusion protein on the cell surface. […] Small molecular weight Fpn inhibitor compounds were tested for dose-dependent effects on the Fpn-GFP mean fluorescence intensity (MFI) on HEK-293 cell line #354, as described below. HEK #354 cells were harvested from ca. 80% confluent cultures, seeded at 0.6×10^6 cells/ml in DMEM/F12 GlutaMAX™ medium (Invitrogen, Cat. 31331-028) containing 10% FBS (Clontech, Cat. 631106), 1% Penicillin-Streptomycin (Invitrogen, Cat. 15140-122), 200 μg/ml Hygromycin B (Invitrogen, Cat. 10687-010), Blasticidin 5 μg/ml, (Invitrogen, Cat. R210-01), 4 μg/ml doxycycline (Clontech, Cat. 631311), 50 μl per well of 384 well plates (Greiner; Cat. 781091) and grown at 37° C. with 5% CO2. After overnight incubation, 10 μl/well of dilution series of the test compounds were added in quadruplicates and plates were further incubated overnight at 37° C. with 5% CO2. Cells were washed once with FACS buffer (PBS containing 1% FBS, 2 mM EDTA and 0.05% NaN3), harvested in FACS buffer with 0.5 μg/ml propidium iodide (Sigma, Cat. P4864) and analyzed in a flow cytometer (CANTO™ II, BD Biosciences) equipped with high throughput sampler. Live HEK #354 cells were gated as propidium iodide negative population and analyzed for expression of Fpn-GFP.

ferroportin (Fpn) = biological target: T2, ferroportin (Fpn) (Mus musculus, UniProt Q9JHI9); experiment: Hepcidin Internalization Assay (J774); format: cell-based; conditions: average (AVE) of multiple measurements; TMR-hepcidin 25 nM, J774 cells
T2 construct: host or cells: J774 mouse macrophage cell line, Fe(III)-NTA induced
T2 sequence (Q9JHI9 1-570): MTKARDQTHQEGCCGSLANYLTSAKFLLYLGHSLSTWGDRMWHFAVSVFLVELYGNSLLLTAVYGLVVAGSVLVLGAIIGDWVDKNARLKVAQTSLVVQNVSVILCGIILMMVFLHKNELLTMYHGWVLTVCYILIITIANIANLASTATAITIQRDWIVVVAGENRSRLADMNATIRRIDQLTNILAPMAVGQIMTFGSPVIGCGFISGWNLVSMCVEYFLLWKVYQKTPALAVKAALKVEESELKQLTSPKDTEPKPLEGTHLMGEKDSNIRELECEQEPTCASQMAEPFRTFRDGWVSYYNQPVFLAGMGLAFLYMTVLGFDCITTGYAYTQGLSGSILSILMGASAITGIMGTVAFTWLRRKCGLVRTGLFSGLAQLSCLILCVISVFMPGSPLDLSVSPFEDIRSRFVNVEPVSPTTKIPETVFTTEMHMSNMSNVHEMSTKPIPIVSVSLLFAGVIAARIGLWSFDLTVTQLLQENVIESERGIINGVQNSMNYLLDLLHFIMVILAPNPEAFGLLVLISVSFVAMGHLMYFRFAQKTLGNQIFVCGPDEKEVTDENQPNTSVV
Excerpt: This cellular assay allows quantification of the binding of hepcidin to ferroportin (Fpn) through microscopic detection of internalization of a fluorescently labeled hepcidin into J774 cells. […] Binding of hepcidin to Fpn triggers internalization and degradation of both hepcidin and Fpn. However, the TMR (6-carboxytetramethylrhodamine) fluorophore attached to hepcidin remains associated with the cell after degradation of the hepcidin peptide backbone. Therefore, microscopic detection of cell-associated TMR fluorescence is a measure of hepcidin binding to Fpn and internalization of hepcidin and Fpn. If TMR-hepcidin is prevented from binding to Fpn, cellular TMR fluorescence remains low (Dürrenberger et al, 2013). The effect of small molecular weight Fpn inhibitor compounds in this assay was evaluated in vitro as described below.
After overnight incubation, cells were washed 3 times with pre-warmed DMEM w/o phenol red, 30 μl/well of DMEM w/o phenol red was added after the final wash and 10 μl/well of dilution series of test compounds were added in triplicates. […] Cells were incubated in a total volume of 50 μl at 37° C. with 5% CO2 for 2 hours, then Hoechst 33342 dye was added to a final concentration of 0.5 μg/ml to stain nuclei and further incubated for 10 min. at 37° C. with 5% CO2. Cells were washed 3 times with PBS and fixed in 100 μl of 4% paraformaldehyde in PBS for 15 min. at room temperature. After removal of the paraformaldehyde solution, cells were washed 3 times with PBS leaving 100 μl per well and the plates were sealed with foil plate seal. TMR (530-550 nm excitation/575-625 nm emission/400 ms exposure time) and Hoechst 33342 (360-370 nm excitation/420-460 nm emission/10 ms exposure time) fluorescence images were acquired using a ScanR plate imager (Olympus) with a 20× high NA objective. Four pictures were acquired per well and fluorescence channel covering ca. 1500 cells per well. The acquired image data was analysed with the ScanR image analysis software. Image analysis included detection of nuclei (Hoechst 33342 fluorescence), identification of cell-associated regions, application of a virtual channel and thresholding for rolling-ball-type background reduction, followed by application of the Sum(Mean) algorithm to measure the TMR fluorescence associated with cells as a quantitative measure for internalized TMR-hepcidin. IC50 values were calculated with the Sum(Mean) raw data using “log(inhibitor) vs. response” curve fitting of Prism 5 software (GraphPad Software Inc., version 5.02).

O=C(NCc1ncccc1F)c1cnc(CCNCCc2nc3ccccc3[nH]2)o1 [Example 1]
EC50 [1]: 220 nM
IC50 (ferroportin (Fpn)): 12 nM

O=C(NCc1ncccc1F)c1cnc(C2CN(CCc3nc4ccccc4[nH]3)C2)o1 [Example 2]
EC50 [1]: 630 nM
IC50 (ferroportin (Fpn)): 35 nM

O=C(NCc1ncccc1F)c1csc(CCNCc2nc3ccccc3[nH]2)n1 [Example 40]
EC50 [1]: 810 nM
IC50 (ferroportin (Fpn)): 49 nM

O=C(NCc1ncccc1F)c1cnn(CCNCCc2cc3ccccc3[nH]2)c1 [Example 277]
DC50 ([1]; read-out: EC50 (the source's name)): 69 nM
IC50 (ferroportin (Fpn)): 11 nM
